Reference: paper PMC5926414 (Japanese Journal of Cancer Research : Gann, 2000)
Like-named read-outs stand apart in the source and are kept apart here. Square brackets hold non-standard residues; d marks the D form. Peptide text beside a SMILES is read from it. * marks the point of attachment. X1 = COC1=CC(=O)N(C(=O)[C@@H](O*)C(C)C)[C@H]1Cc1ccccc1; NMe2Val = CC(C)[C@@H](C(=O)*)N(C)C; NMeV = CN[C@H](C(=O)O)C(C)C

How the values were obtained:
[1] = biological target: T1, porcine brain microtubule protein (Sus scrofa, UniProt P02550+P02554); assay: biochemical
T1 sequence (P02550 whole entry): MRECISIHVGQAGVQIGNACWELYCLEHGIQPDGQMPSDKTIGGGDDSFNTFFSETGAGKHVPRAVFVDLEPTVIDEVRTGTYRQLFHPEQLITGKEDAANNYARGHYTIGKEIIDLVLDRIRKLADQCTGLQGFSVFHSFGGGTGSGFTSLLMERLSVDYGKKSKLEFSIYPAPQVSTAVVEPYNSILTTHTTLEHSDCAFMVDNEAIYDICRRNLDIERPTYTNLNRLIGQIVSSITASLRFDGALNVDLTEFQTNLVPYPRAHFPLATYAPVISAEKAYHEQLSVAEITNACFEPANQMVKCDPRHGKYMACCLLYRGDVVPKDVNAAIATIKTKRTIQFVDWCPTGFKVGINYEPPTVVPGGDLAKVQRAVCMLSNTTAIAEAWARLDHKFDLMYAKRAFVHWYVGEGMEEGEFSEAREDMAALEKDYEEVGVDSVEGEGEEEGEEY
T1 sequence (P02554 whole entry): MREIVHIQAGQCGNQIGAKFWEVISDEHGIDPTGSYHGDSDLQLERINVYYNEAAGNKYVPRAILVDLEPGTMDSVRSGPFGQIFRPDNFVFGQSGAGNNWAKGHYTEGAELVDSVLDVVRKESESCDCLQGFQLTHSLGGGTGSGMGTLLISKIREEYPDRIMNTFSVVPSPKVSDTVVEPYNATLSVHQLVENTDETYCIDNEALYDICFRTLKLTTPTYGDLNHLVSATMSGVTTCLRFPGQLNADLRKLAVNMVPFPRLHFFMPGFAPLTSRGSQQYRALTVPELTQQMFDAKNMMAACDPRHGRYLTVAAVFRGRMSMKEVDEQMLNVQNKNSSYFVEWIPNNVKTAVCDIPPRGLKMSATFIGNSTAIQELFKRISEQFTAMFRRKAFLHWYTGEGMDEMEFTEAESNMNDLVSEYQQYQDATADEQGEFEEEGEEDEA

[2] = test system: porcine brain tubulin; format: biochemical
[3] = biological target: T2, bovine brain tubulin (Bos taurus, UniProt P81947+Q6B856); details: read-out: IC50, inhibition of monosodium glutamate-induced tubulin polymerization; in 4% DMSO; ref 8 (Bai et al.); cited from earlier work
T2 sequence (P81947 whole entry): as the sequence (P02550 whole entry) above, with S136L, G232S, A265I, T340S, E358Q counted along it
T2 sequence (Q6B856 whole entry): as the sequence (P02554 whole entry) above, with A55T, V170M, A296S, V316I, G440E, E441G counted along it

[4] = test system: porcine brain tubulin; format: binding
[5] = biological target: T3, porcine brain tubulin (Sus scrofa, UniProt P02550+P02554); format: binding
T3 sequence (P02550 whole entry): as the sequence (P02550 whole entry) above
T3 sequence (P02554 whole entry): as the sequence (P02554 whole entry) above

[6] = biological target: T2, bovine brain tubulin; assay: biochemical
[7] = biological target: T1, porcine brain microtubule protein; assay: biochemical; details: read-out: inhibition of microtubule polymerization, agent alone
[8] = test system: porcine brain tubulin; details: ref 28 (Huang et al.); cited from earlier work
[9] = biological target: T3, porcine brain tubulin; assay: biochemical; format: binding

Row | Structure (SMILES) | IC50 [1] [µM] | inhibition of GTP hydrolysis on tubulin [2] | IC50 [3] [µM] | inhibition of [3H]GTP binding to tubulin [4] | displacement of [3H]TZT-1027 on tubulin [5] | displacement of [3H]VLB on tubulin [5] | IC50 [6] [µM] | effect on tubulin polymerization at high concentration [6] | inhibition at 3 µM ([6]; read-out: inhibition of monosodium glutamate-induced tubulin polymerization) [%] | inhibition at 3 µM [7] [%] | concentration with inhibitory effect on the binding of GTP to tubulin [8] | inhibitory effect on microtubule polymerization at high concentration [1] | Bmax, binding to tubulin (one binding site) [9] [nM/mg protein] | Kd [9] [µM]
1 | CC[C@H](C)[C@@H]([C@@H](CC(=O)N1CCC[C@H]1[C@H](OC)[C@@H](C)C(=O)N[C@@H](Cc1ccccc1)c1nccs1)OC)N(C)C(=O)[C@@H](NC(=O)[C@H](C(C)C)N(C)C)C(C)C [dolastatin 10] | 2.3 ± 0.7 | concentration-dependent inhibition | 1.2 | concentration-dependent inhibition | completely displaced | completely displaced | 2.8 | no further increase in inhibition | 88 |  |  |  |  | 
2 | CC(=O)O[C@H]1C(=O)[C@@]2(C)[C@H]([C@H](OC(=O)c3ccccc3)[C@]3(O)C[C@H](OC(=O)[C@H](O)[C@@H](NC(=O)c4ccccc4)c4ccccc4)C(C)=C1C3(C)C)[C@]1(OC(C)=O)CO[C@@H]1C[C@@H]2O [PTX, paclitaxel] |  |  |  |  | did not have remarkable inhibitory effects | did not have remarkable inhibitory effects |  |  |  |  |  |  |  | 
3 | CC[C@]1(O)C[C@@H]2CN(CCc3c([nH]c4ccccc34)[C@@](C(=O)OC)(c3cc4c(cc3OC)N(C)[C@H]3[C@@](O)(C(=O)OC)[C@H](OC(C)=O)[C@]5(CC)C=CCN6CC[C@]43[C@@H]65)C2)C1 [VLB, vinblastine] | 2.7 ± 0.6 | concentration-dependent inhibition |  | no inhibitory effect | only incompletely |  | 0.6 | aggregation |  | 64.7 | above 100 M | slight decrease in inhibitory effect | 6.0±0.26 | 0.2 ± 0.04
4 | COC1=CC(=O)N(C(=O)[C@@H](OC(=O)[C@@H]2CCCN2C(=O)[C@@H]2CCCN2C(=O)[C@H](C(C)C)N(C)C(=O)[C@@H](NC(=O)[C@H](C(C)C)N(C)C)C(C)C)C(C)C)[C@H]1Cc1ccccc1 [dolastatin 15] (NMe2Val-V[NMeV]PP-X1) |  | concentration-dependent inhibition |  |  | did not have remarkable inhibitory effects | did not have remarkable inhibitory effects |  |  |  |  |  |  |  | 
5 | CC[C@]1(O)C[C@H]2CN(CCc3c([nH]c4ccccc34)[C@@](C(=O)OC)(c3cc4c(cc3OC)N(C=O)[C@H]3[C@@](O)(C(=O)OC)[C@H](OC(C)=O)[C@]5(CC)C=CCN6CC[C@]43[C@@H]65)C2)C1 [VCR, vincristine] | 1.6 ± 0.4 |  |  |  | the displacement was not complete |  |  |  |  |  |  | slight decrease in inhibitory effect |  | 
